In the experiment the target is Human immunodeficiency virus type 1 integrase (Human immunodeficiency virus 1, UniProt Q7ZJM1). Kind of experiment: Inhibition of HIV1 integrase strand transfer activity.

Some results are limits rather than exact numbers.

As a reminder, the IC50 is the concentration needed to halve the response being measured.

Sequence of Human immunodeficiency virus type 1 integrase (Q7ZJM1 whole entry): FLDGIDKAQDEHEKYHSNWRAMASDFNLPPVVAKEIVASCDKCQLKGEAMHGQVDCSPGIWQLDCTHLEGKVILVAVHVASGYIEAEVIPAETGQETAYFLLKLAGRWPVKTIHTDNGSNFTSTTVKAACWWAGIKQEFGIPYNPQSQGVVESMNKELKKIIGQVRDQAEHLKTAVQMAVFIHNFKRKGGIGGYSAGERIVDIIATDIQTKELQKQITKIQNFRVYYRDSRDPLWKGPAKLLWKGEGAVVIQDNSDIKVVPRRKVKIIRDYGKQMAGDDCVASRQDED

`O=C(O)/C(O)=C/C(=O)c1cccc(Cc2ccc(F)cc2)c1` yielded an IC50 of less than 100 nM. As to `O=C(O)/C(O)=C/C(=O)c1cccn1Cc1ccccc1`, half-maximal inhibition (IC50) required 220 nM.

`O=C(O)/C(O)=C/C(=O)c1cccc(Cc2ccccc2F)c1` displayed an IC50 of less than 100 nM. Under `O=C(O)/C(O)=C/C(=O)c1cccc(OCc2ccccc2)c1` stands 350 nM; under `O=C(O)/C(O)=C/C(=O)c1ccc(Cc2ccccc2)s1`, 500 nM; under `COc1cccc(Cc2cccc(C(=O)/C=C(\O)C(=O)O)c2)c1`, 140 nM. `O=C(O)/C(O)=C/C(=O)c1cccc(Br)c1` returned an IC50 of 2500 nM.

Compound `O=C1c2c(c(-c3c(F)cccc3F)c3cccnc3c2O)CN1Cc1ccc(F)cc1` registered an IC50 of 330 nM.

For `O=C(O)/C(O)=C/C(=O)c1cccn1Cc1ccc(-c2ccccc2)cc1`, the IC50 was determined as 7500 nM. As to `O=C(O)/C(O)=C/C(=O)c1cc(OCc2ccccc2)cc(OCc2ccccc2)c1`, half-maximal inhibition (IC50) was put at 100 nM.

As to `O=C(O)/C(O)=C/C(=O)c1cccn1CCCc1ccccc1`, the IC50 stood at 500 nM. As for `O=C(O)/C(O)=C/C(=O)c1ccc(Oc2ccccc2)cc1`, the figure is 11400 nM; as for `O=C(O)/C(O)=C/C(=O)c1ccn(Cc2ccccc2)c1`, 550 nM.

Compound `CN(C)S(=O)(=O)Oc1c2c(c(O)c3ncccc13)C(=O)N(Cc1ccc(F)cc1)C2` returned an IC50 of 250 nM.

Regarding `O=C(O)/C(O)=C/C(=O)c1ccccc1Cc1ccccc1`, the IC50 came to 5670 nM. Under `CN(C)C(=O)C(=O)N(C)c1cc(C(=O)NCc2ccc(F)cc2)c(O)c2ncccc12` stands 40 nM. In the case of `O=C1c2c(c(C(=O)N3CCOCC3)c3cccnc3c2O)CN1Cc1ccc(F)cc1`, the IC50 is 40 nM. As for `COc1cnc2c(O)c3c(c(OC)c2c1)CN(Cc1ccc(F)cc1)C3=O`, the figure is 90 nM. As for `O=C(O)/C(O)=C/C(=O)c1cccc(Cc2ccccc2Cl)c1`, the figure is less than 100 nM. Under `O=C(O)/C(O)=C/C(=O)c1csc(Cc2ccccc2)c1` stands 130 nM; under `O=C(/C=C(\O)C(=O)O)C(=O)c1cccc(C(=O)c2ccccc2)c1`, 2400 nM; under `CN1CCN(c2cc(C(=O)NCc3ccc(F)cc3)c(O)c3ncccc23)CC1`, 40 nM.

Turning to `O=C(O)/C(O)=C/C(=O)c1cccc(Cc2ccc(Cl)cc2)c1`, it took 750 nM to reach half-maximal inhibition (IC50). Compared with the last compound, the IC50 is about 19-fold higher.

For the compound `O=C(O)/C(O)=C/C(=O)C1C=CSC1Cc1ccccc1` (stereo not drawn), 180 nM corresponded to half-maximal inhibition (IC50). As for `COc1ccc(Cc2cccc(C(=O)/C=C(\O)C(=O)O)c2)cc1`, the figure is 150 nM; as for `CC(=O)N(C)c1cc(C(=O)NCc2ccc(F)cc2)c(O)c2ncccc12`, 20 nM; as for `[N-]=[N+]=NCc1cc(CN=[N+]=[N-])cc(C(=O)/C=C(\O)C(=O)O)c1`, 460 nM. As for `[N-]=[N+]=NCc1cccc(C(=O)/C=C(\O)C(=O)O)c1`, the figure is 330 nM; as for `O=C(O)/C(O)=C/C(=O)c1cccc(Cc2cccc(Cl)c2)c1`, less than 100 nM. Under `CC(=O)N(C)CCNc1cc(C(=O)NCc2ccc(F)cc2)c(O)c2ncccc12` stands 30 nM; under `O=C(NCc1ccc(F)cc1)c1ccc2cccnc2c1O`, 30 nM.

`O=C(O)/C(O)=C/C(=O)c1cccc(Cc2cccc(F)c2)c1` gave an IC50 of 250 nM. Under `CC(=O)N1CCN(c2cc(C(=O)NCc3ccc(F)cc3)c(O)c3ncccc23)CC1` stands 20 nM.
